Results: patent publication US6680052B1, “Methods of inhibiting tumor growth using adenosine receptor activated cells” (Endacea, Inc., priority 1999, dated 2004)

Legend:
[1] = tested on: human epidermoid carcinoma cells; conditions: low versus higher concentrations; cited from earlier work
monocytes = conditions: cited from earlier work
[2] = tested on: human metastatic cell lines; conditions: administered directly to the cell lines, in vitro; cited from earlier work
A1 adenosine receptors = biological target: T1, A1 adenosine receptors (Homo sapiens, UniProt P30542); assay: Endotoxin induced inhibition of adenylate cyclase in pulmonary arterial endothelial cells; format: cell-based
T1 construct: endogenous in cells; host or cells: pulmonary arterial endothelial cells
T1 sequence (P30542 1-326): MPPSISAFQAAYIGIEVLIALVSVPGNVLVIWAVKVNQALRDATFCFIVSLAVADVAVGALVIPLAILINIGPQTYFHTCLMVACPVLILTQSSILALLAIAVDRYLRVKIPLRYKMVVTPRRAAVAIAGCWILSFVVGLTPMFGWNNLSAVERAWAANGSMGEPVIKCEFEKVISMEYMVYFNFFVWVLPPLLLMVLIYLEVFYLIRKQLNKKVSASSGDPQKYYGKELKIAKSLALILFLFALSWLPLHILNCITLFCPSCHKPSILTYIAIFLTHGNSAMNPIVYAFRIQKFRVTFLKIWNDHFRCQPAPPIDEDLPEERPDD
Text: DPCPX and ^125I-BW A844U. […] Neely, Jin and Keith, Am J. Physiol., Lung Cell Mol. Physiol. , 268:L1036, 1995.

[3] = tested on: pulmonary arterial endothelial cells; assay: Thromboxane release from pulmonary arterial endothelial cells; format: cell-based
Text: DPCPX and ^125I-BW A844U. These findings indicate that LPS binds to and activates Al adenosine receptors on pulmonary artery endothelial cells. Also, A1 adenosine receptor antagonists are able to block such endotoxin-induced lung injury, supporting that activation of A1 adenosine receptors is important in endotoxin-induced acute lung injury. Neely, Jin and Keith, Am J. Physiol., Lung Cell Mol. Physiol. , 268:L1036, 1995.
The methods of the present invention also utilize hypoxia and reoxygenation conditions to increase A1 adenosine receptor activation and signal transduction pathways which, following activation, result in the release of cytotoxic substances. As noted above, following ischemia and reperfusion, activation of A1 adenosine receptors present on pulmonary arterial endothelial cells causes a cytotoxic effect (Neely and Keith (1995)), and the release of a cytotoxic substance, thromboxane, has been found by the present inventor to be blocked by an A1 adenosine receptor antagonist (DPCPX). In heart tissue adenosine, A1 adenosine receptor agonists, or a brief period of preconditioning ischemia attenuates ischemia-reperfusion (I-R) injury. In the lung, thromboxane is released during ischemia and is a mediator of I-R injury. Moreover, ischemia and reperfusion enhance the capacity of LPS to produce cytotoxicity and damage organs. […]

[4] = tested on: pulmonary artery endothelial cells; assay: Phospholipase A2 increase following hypoxia/anoxia of pulmonary artery endothelial cells in vitro; format: cell-based
Protocol: Following ischemia and reperfusion, activation of A1 adenosine receptors present on pulmonary arterial endothelial cells results in a cytotoxic effect. In heart tissue adenosine, A1 adenosine receptor agonists, or a brief period (from approximately 5 to about 15 minutes) of preconditioning ischemia attenuates ischemia-reperfusion (I-R) injury. See, […] Keith, Am. J. Physiol. 268:[…] (1995). In the lung, thromboxane is released during ischemia and is a mediator of I-R injury. Adenosine produces vasoconstriction in the pulmonary vascular bed by acting on A1 receptors to induce the release of thromboxane. These vasoconstrictor responses in endothelial cells are desensitized by prior treatment with low doses of A1 receptor agonists. It was hypothesized that during preconditioning ischemia, adenosine attenuates ischemia-reperfusion injury of the heart by activation and subsequent desensitization of A1 adenosine receptors. Preconditioning ischemia attenuates ischemia-reperfusion (I-R) injury of both lung and heart. […]

For Nc1ncnc2c1ncn2[C@@H]1O[C@H](CO)[C@@H](O)[C@H]1O [adenosine], the colony formation [1] is listed as “biphasic response”.

For [Na+].[Na+].[Na+].[O]=[V]([O-])([O-])[O-] [vanadate, sodium orthovanadate], the “LPS induced production of TNFα” value (monocytes) is given as “enhanced”.

For CCNC(=O)[C@H]1O[C@@H](n2cnc3c(N)ncnc32)[C@H](O)[C@@H]1O [NECA, 5′-(N-ethyl)-carboxamidoadenosine], the “effect on cell growth” value [2] is given as “inhibitory effect”.

In the case of CCCn1c(=O)c2[nH]c(-c3ccc(Cl)cc3N)nc2n(CCC)c1=O [PACPX, 1,3-dipropyl-8-(2-amino-4-chloropheny)-xanthine], the “effect on cell growth” value [2] is given as “inhibitory effect”.

In the case of CCCn1c(=O)c2[nH]c(C3CCCC3)nc2n(CCC)c1=O [DPCPX, 1,3 dipropyl 8 cyclopentylxanthine], the “endotoxin induced inhibition of adenylate cyclase” value (A1 adenosine receptors) is reported as “blocked”, the release of thromboxane ([3]; following ischemia and reperfusion, A1 adenosine receptor activation) is reported as “blocked” and the “endotoxin induced thromboxane release” value ([3]; pulmonary arterial endothelial cells) is reported as “blocked”. The “increase in phospholipase A2 (PLA2)” value [4] was “inhibits”.
